Where only a bound is given, the exact number is not on record here.

In this assay the target is BoNT/A LC (Clostridium botulinum, UniProt P0DPI0). Put plainly: biochemical. The class given is biochemical.
Chain of BoNT/A LC (P0DPI0 2-448 limits assumed): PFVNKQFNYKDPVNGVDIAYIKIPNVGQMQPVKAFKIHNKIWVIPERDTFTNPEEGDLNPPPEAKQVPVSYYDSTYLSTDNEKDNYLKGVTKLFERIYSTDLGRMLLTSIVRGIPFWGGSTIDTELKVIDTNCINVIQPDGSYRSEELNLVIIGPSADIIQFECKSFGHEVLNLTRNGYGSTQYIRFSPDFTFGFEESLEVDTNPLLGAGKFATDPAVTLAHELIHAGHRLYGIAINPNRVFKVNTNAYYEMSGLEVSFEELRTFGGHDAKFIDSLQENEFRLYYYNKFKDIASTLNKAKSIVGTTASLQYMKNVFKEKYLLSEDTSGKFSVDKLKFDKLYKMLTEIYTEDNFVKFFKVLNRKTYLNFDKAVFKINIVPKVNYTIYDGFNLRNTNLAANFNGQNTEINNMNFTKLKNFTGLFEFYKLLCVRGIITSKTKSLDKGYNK
Regarding `CN(C)Cc1cc(=O)n2cccc(O)c2n1` [Compound 15, 2-((Dimethylamino)methyl)-9-hydroxy-4H-pyrido [1,2-a]pyrimidin-4-one], the IC50 (usually the point on the concentration scale where inhibition reaches its midpoint) is greater than 64 µM.

In the case of `Cc1ccc(CNCc2cc(=O)n3cccc(O)c3n2)cc1` [Compound 23, 9-Hydroxy-2-(((4-methylbenzyl)amino)methyl)-4H-pyrido [1,2-a]pyrimidin-4-one], the IC50 came to 1.4 ± 0.9 µM.

Turning to `NCc1cc(=O)n2cccc(O)c2n1` [Compound 13, 2-(Aminomethyl)-9-hydroxy-4H-pyrido [1,2-a]pyrimidin-4-one], the “inhibitory activity against BoNT/A LC (in words)” value (“inhibitory activity” for short) is “a decrease in inhibitory potency”.

`O=c1cc(CN2CCc3ccc(Br)cc32)nc2c(O)cccn12` [Compound 49, 2-((6-Bromoindolin-1-yl)methyl)-9-hydroxy-4H-pyrido [1,2-a]pyrimidin-4-one]: the IC50 worked out at 0.7 ± 0.05 µM.

Regarding `COC(=O)c1cccc(CNCc2cc(=O)n3cccc(O)c3n2)c1` [Compound 24, Methyl 3-((((9-hydroxy-4-oxo-4H-pyrido [1,2-a]pyrimidin-2-yl)methyl)amino)methyl) benzoate], half-maximal inhibition (IC50) was put at 0.41 ± 0.08 µM.

In turn, `O=c1cc(CN2CCc3cc(Br)ccc32)nc2c(O)cccn12` [Compound 48, 2-((5-Bromoindolin-1-yl)methyl)-9-hydroxy-4H-pyrido [1,2-a]pyrimidin-4-one] displayed an IC50 of 0.7 ± 0.1 µM.

`COc1ccc2c(c1)N(Cc1cc(=O)n3cccc(O)c3n1)CC2` [Compound 51, 9-Hydroxy-2-((6-methoxyindolin-1-yl)methyl)-4H-pyrido [1,2-a]pyrimidin-4-one] gave an IC50 greater than 64 µM.

Compound `COC(=O)c1ccc2c(c1)N(Cc1cc(=O)n3cccc(O)c3n1)CC2` [Compound 53, Methyl-1-((9-hydroxy-4-oxo-4H-pyrido [1,2-a]pyrimidin-2-yl)methyl)indoline-6-carboxylate] had an IC50 of 1.1 ± 0.1 µM.

In the case of `O=c1cc(CN2Cc3ccccc3C2)nc2c(O)cccn12` [Compound 42, 9-Hydroxy-2-(isoindolin-2-ylmethyl)-4H-pyrido [1,2-a]pyrimidin-4-one], 1.2 ± 0.1 µM corresponded to half-maximal inhibition (IC50) and the “potency compared to 2 (in words)” value was “equipotent”.

Take `Cc1ccc(COCc2cc(=O)n3cccc(O)c3n2)cc1` [Compound 39, 9-Hydroxy-2-(((4-methylbenzyl)oxy)methyl)-4H-pyrido [1,2-a]pyrimidin-4-one]: the IC50 is 9.1 ± 0.5 µM.

Regarding `O=c1cc(CNCCc2ccccc2)nc2c(O)cccn12` [Compound 29, 9-Hydroxy-2-((phenethylamino)methyl)-4H-pyrido [1,2-a]pyrimidin-4-one], the IC50 came to 10 ± 1 µM.

`O=c1cc(CN2Cc3ccc(Br)cc3C2)nc2c(O)cccn12` [Compound 44, 2-((5-Bromoisoindolin-2-yl)methyl)-9-hydroxy-4H-pyrido [1,2-a]pyrimidin-4-one] yielded an IC50 of 0.4 ± 0.02 µM.

Compound `O=c1cc(CNCc2ccc(Cl)cc2)nc2c(O)cccn12` [Compound 19, 2-(((4-Chlorobenzyl)amino)methyl)-9-hydroxy-4H-pyrido [1,2-a]pyrimidin-4-one] returned an IC50 of 1.1 ± 0.1 µM.

`COC(=O)c1ccc2c(c1)CCN2Cc1cc(=O)n2cccc(O)c2n1` [Compound 52, Methyl1-((9-hydroxy-4-oxo-4H-pyrido [1,2-a]pyrimidin-2-yl)methyl)indoline-5-carboxylate] displayed an IC50 of 1.2 ± 0.7 µM.

For the compound `O=c1cc(COCc2ccc(Cl)cc2)nc2c(O)cccn12` [Compound 36, 2-(((4-Chlorobenzyl)oxy)methyl)-9-hydroxy-4H-pyrido [1,2-a]pyrimidin-4-one], the IC50 is 4.13 ± 0.09 µM.

For `O=c1cc(CN2CCc3ccc(-c4ccccc4)cc32)nc2c(O)cccn12` [Compound 56, 9-Hydroxy-2-((6-phenylindolin-1-yl)methyl)-4H-pyrido [1,2-a]pyrimidin-4-one], the IC50 was determined as 0.6 ± 0.1 µM. Against the preceding compound, the IC50 is about 6.9-fold lower.

Consider `O=c1cc(CCCc2ccccc2)nc2c(O)cccn12` [Compound 7, 9-Hydroxy-2-(3-phenylpropyl)-4H-pyrido [1,2-a]pyrimidin-4-one], for which the “inhibitory activity” value was “drastic decrease in inhibitory activity”.

`COC(=O)c1ccc(CNCc2cc(=O)n3cccc(O)c3n2)cc1` [Compound 25, Methyl 4-((((9-hydroxy-4-oxo-4H-pyrido [1,2-a]pyrimidin-2-yl)methyl)amino)methyl) benzoate]: the IC50 is greater than 64 µM.

The compound `O=c1cc(CN2CCc3ccccc32)nc2c(O)cccn12` [Compound 46, 9-Hydroxy-2-(indolin-1-ylmethyl)-4H-pyrido [1,2-a]pyrimidin-4-one] yielded an IC50 of 2.9 ± 0.1 µM.

In turn, `O=c1cc(CNCc2ccc(F)cc2)nc2c(O)cccn12` [Compound 17, 2-(((4-Fluorobenzyl)amino)methyl)-9-hydroxy-4H-pyrido [1,2-a]pyrimidin-4-one] had an IC50 of 1.2 ± 0.2 µM.

The compound `Cc1cccc(CNCc2cc(=O)n3cccc(O)c3n2)c1` [Compound 22, 9-Hydroxy-2-(((3-methylbenzyl)amino)methyl)-4H-pyrido [1,2-a]pyrimidin-4-one] showed an IC50 of 0.5 ± 0.1 µM. This IC50 lies about 2.4-fold lower than the previous one.

Take `COc1ccc(CNCc2cc(=O)n3cccc(O)c3n2)cc1` [Compound 21, 9-Hydroxy-2-(((4-methoxybenzyl)amino)methyl)-4H-pyrido [1,2-a]pyrimidin-4-one]: the IC50 was found to be 1.9 ± 0.2 µM. Compared with the last compound, the IC50 is about 3.8-fold higher.

Take `O=c1cc(COCc2ccccc2F)nc2c(O)cccn12` [Compound 31, 2-(((2-Fluorobenzyl)oxy)methyl)-9-hydroxy-4H-pyrido [1,2-a]pyrimidin-4-one]: the IC50 is 18 ± 2 µM.

Regarding `O=c1cc(COCc2ccc(F)cc2)nc2c(O)cccn12` [Compound 33, 2-(((4-Fluorobenzyl)oxy)methyl)-9-hydroxy-4H-pyrido [1,2-a]pyrimidin-4-one], half-maximal inhibition (IC50) was put at 15 ± 1 µM.

With `O=c1cc(COCc2cccc([N+](=O)[O-])c2)nc2c(O)cccn12` [Compound 40, 9-Hydroxy-2-(((3-nitrobenzyl)oxy)methyl)-4H-pyrido [1,2-a]pyrimidin-4-one], the IC50 stood at 9.7 ± 0.8 µM.

For `CCc1cc(=O)n2cccc(O)c2n1` [Compound 6, 2-Ethyl-9-hydroxy-4H-pyrido [1,2-a]pyrimidin-4-one], the “inhibitory activity” value is listed as “a decrease in inhibitory potency”.

The compound `O=c1cc(CN2Cc3ccc(Cl)cc3C2)nc2c(O)cccn12` [Compound 43, 2-((5-Chloroisoindolin-2-yl)methyl)-9-hydroxy-4H-pyrido [1,2-a]pyrimidin-4-one] had an IC50 of 0.5 ± 0.2 µM.

Take `CC(O)c1cc2n(n1)CCN(Cc1cc(=O)n3cccc(O)c3n1)C2` (stereo not shown) [Compound 4]: half-maximal inhibition (IC50) was put at 7 ± 1 µM. This IC50 is about 14-fold higher than that of the compound before.

For the compound `O=c1cc(COCc2ccccc2)nc2c(O)cccn12` [Compound 30, 2-((Benzyloxy)methyl)-9-hydroxy-4H-pyrido [1,2-a]pyrimidin-4-one], 2.5 ± 0.3 µM corresponded to half-maximal inhibition (IC50).

For `COc1cccc(CNCc2cc(=O)n3cccc(O)c3n2)c1` [Compound 20, 9-Hydroxy-2-(((3-methoxybenzyl)amino)methyl)-4H-pyrido [1,2-a]pyrimidin-4-one], the IC50 stood at 0.49 ± 0.09 µM. This IC50 is about 5.1-fold lower than that of the compound before.

Consider `Cc1cccc2c1N(Cc1cc(=O)n3cccc(O)c3n1)CC2` [Compound 50, 9-Hydroxy-2-((7-methylindolin-1-yl)methyl)-4H-pyrido [1,2-a]pyrimidin-4-one], for which the IC50 was determined as 24 ± 14 µM.

Regarding `O=c1cc(CN2Cc3ccc(-c4ccccc4)cc3C2)nc2c(O)cccn12` [Compound 45, 9-Hydroxy-2-((5-phenylisoindolin-2-yl)methyl)-4H-pyrido [1,2-a]pyrimidin-4-one], the IC50 was found to be 0.7 ± 0.1 µM.

Turning to `O=C(O)[C@@H]1CN(Cc2cc(=O)n3cccc(O)c3n2)C[C@H]1c1ccccn1` [Compound 3], the midpoint of inhibition, the IC50, lay at 1.3 ± 0.2 µM and the “fold more potent than initial lead 1” value was “approximately seven-fold”.

Compound `O=c1cc(CN2CCc3cc(-c4ccccc4)ccc32)nc2c(O)cccn12` [Compound 55, 9-Hydroxy-2-((5-phenylindolin-1-yl)methyl)-4H-pyrido [1,2-a]pyrimidin-4-one] showed an IC50 of 0.9 ± 0.3 µM.

In the case of `O=c1cc(CNCc2cccc(F)c2)nc2c(O)cccn12` [Compound 16, 2-(((3-Fluorobenzyl)amino)methyl)-9-hydroxy-4H-pyrido [1,2-a]pyrimidin-4-one], half-maximal inhibition (IC50) required 0.6 ± 0.1 µM.

In turn, `CN(Cc1ccc(-c2ccccc2)cc1)Cc1cc(=O)n2cccc(O)c2n1` [Compound 28, 2-((([1,1′-biphenyl]-4-ylmethyl)(methyl)amino)methyl)-9-hydroxy-4H-pyrido [1,2-a]pyrimidin-4-one] displayed an IC50 of 12 ± 0.2 µM.

On to `O=c1cc(CNCc2cccc(-c3ccccc3)c2)nc2c(O)cccn12` [Compound 26, 2-((([1,1′-biphenyl]-3-ylmethyl)amino)methyl)-9-hydroxy-4H-pyrido [1,2-a]pyrimidin-4-one], for which half-maximal inhibition (IC50) required 0.6 ± 0.1 µM.

As for `O=c1cc(COCc2ccccc2Cl)nc2c(O)cccn12` [Compound 34, 2-(((2-Chlorobenzyl)oxy)methyl)-9-hydroxy-4H-pyrido [1,2-a]pyrimidin-4-one], the IC50 worked out at 9 ± 2 µM.

`Oc1cccc2ccc(CNCc3ccccc3)nc12` [Compound 14, 2-((Benzylamino)methyl)quinolin-8-ol] yielded a decrease in inhibition of 15 fold.

As to “2-(((4-Chlorobenzyl)amino)methyl)-4H-pyrido [1,2-a]pyrimidin-4-one [Compound 10]”, the “inhibitory activity” value is “complete ablation of inhibitory activity”.

Compound `COc1cc(COCc2cc(=O)n3cccc(O)c3n2)cc(OC)c1` [Compound 41, 2-(((3,5-Dimethoxybenzyl)oxy)methyl)-9-hydroxy-4H-pyrido [1,2-a]pyrimidin-4-one] showed an IC50 of 5.2 ± 0.2 µM.

In turn, `Cc1cccc(COCc2cc(=O)n3cccc(O)c3n2)c1` [Compound 38, 9-Hydroxy-2-(((3-methylbenzyl)oxy)methyl)-4H-pyrido [1,2-a]pyrimidin-4-one] registered an IC50 of 6.6 ± 0.5 µM.

Turning to `CCOc1cccn2c(=O)cc(CNCc3ccccc3)nc12` [Compound 11, 2-((Benzylamino)methyl)-9-ethoxy-4H-pyrido [1,2-a]pyrimidin-4-one], the “inhibitory activity” value is “had a similar effect”.

Consider `O=c1cc(COCc2cccc(O)c2)nc2c(O)cccn12` [Compound 37, 9-Hydroxy-2-(((3-hydroxybenzyl)oxy)methyl)-4H-pyrido [1,2-a]pyrimidin-4-one], for which the IC50 worked out at 26 ± 2 µM.

The values are drawn from article PMC10001950 (International Journal of Molecular Sciences, 2023).
